According to patent US11632972B2, “S-nitrosothiol compounds and their combinations with nitrosamine blocking agents for safe food preservation” (YISSUM RESEARCH DEVELOPMENT COMPANY OF THE HEBREW …, priority 2017, dated 2023):

Assays:
[1] = Formation of N-nitroso-N-methylaniline from N-methylaniline with nitrosilating agent (2.5 mM) in citrate buffer at 37° C.; details: 2.5 mM agent, 2.5 mM N-methylaniline, pH 6.2
Procedure: The HPLC separation was performed on a Merck/Hitachi HPLC system consisting of a LaChrom L 7100 pump and a LaChrom DAD L 7450 detector. The system was operated with a data processor working with a LaChrom interface D 7000 and the EZChrom Elite 3.3.1 software. The mixture was separated on a Kinetex EVO C18 column (250×4.6 mm, 5 μm) using a gradient elution system, solvent A was 5% acetonitrile in water (v/v) and B was acetonitrile. Gradient conditions were initial=0% B, 25 min=70% B and 30 min=100% B. The flow rate was constant at 1.0 mL min^−1. The injection loop volume was 20 μL, absorbance was monitored at 272 nm.
The experiment of Example 1 was repeated with a tenfold increase of concentration of the reactants. That is, reaction mixtures were prepared by mixing in citrate buffer, at pH=3.0 and at pH=6.2, N-methylaniline (2.5 mM) and NaCl (2.5 mM) together with an equimolar amount of the tested nitrosilating agent, used either alone or in combination with ascorbic acid, as set out below: […]

[2] = system: naturally occurring bacteria; test: Aerobic colony count in smoked beef shoulder pastrami; details: pastrami stored at 4° C. for three months; amount equivalent to 150 ppm sodium nitrite; plates 30° C. 24 hr
Procedure: Aerobic colony count of naturally occurring bacteria in smoked beef shoulder pastrami: 5 gr of the pastrami manufactured in a meat factory as described above were homogenized in a sterile grinder with 45 ml of sterile saline, then further diluted with saline. The diluents were plated on BHI agar plates and incubated at 30° C. for 24 hr then colonies were counted and CFU calculated.

[3] = system: naturally occurring bacteria; test: Aerobic colony count in ground beef shoulder; details: 2.5 mM preservative; for bacteria count (aerobic colony count): after 1 week of storage at 4° C.; for bacteria concentration (aerobic colony count): after 4 weeks at 4° C.
Procedure: 10 gr of ground beef shoulder was mixed with 1 ml (25 mM) aqueous solution of the tested preservative (Sodium nitrite, S-nitroso-cysteine and S-nitroso-N-acetylcysteine) or DDW for control and 1 ml of NaCl solution (10% w/v). The final concentrations were 2.5 mM preservative (where Kg meat=L) and 1% (w/w) NaCl. The meat was divided to 1 gr portions and placed in open vacuum bags, then heated in a water bath at 75° C. for 15 min and sealed by […] C100 at a vacuum of 8 mbar. The bags were transferred to 4° C. for cooling and storage. After time periods of 1 hr, 1 week and 4 weeks elapsed, the bags were opened in a hood and 1 gr of meat was homogenized in a sterile grinder with 9 ml of sterile saline, then the homogenate was diluted further with saline and the diluents were plated on BHI agar plates. The plates were incubated at 30° C. for 24 hours then colonies were counted and CFU calculated.

[4] = Effect on the color of the meat (Hunter L*, a*, b*, colorimeter); parameters: species or system beef; details: aerobic conditions, period of 24 h
Procedure: Nitrite is known to be responsible for the characteristic pink color associated with cured meat products and flavor stabilization. The color development and color stability of ground beef treated S-nitroso-cysteine and S-nitroso-N-acetylcysteine after heating to 72° C. was compared to the color of ground beef treated with nitrite. A portable colorimeter (X-rite) was used to measure Hunter color lightness, redness and yellowness (L*, a*, b*) values of ground beef samples treated with the different additives and heated in a microwave oven (Dow, S-Korea, at 800 W) to 72° C. in the center. The instrument was standardized using white and black standard plates.

SMILES | kinetics of N-nitroso-methylaniline formation (UV absorbance at 270 nm versus time) [1] | aerobic colony count (concentration of bacteria) [2] | bacteria count (aerobic colony count) [3] | bacteria concentration (aerobic colony count) [3] | color stability (ΔE*) over time [4]
CC(=O)N[C@@H](CSN=O)C(=O)O [S-nitroso-N-acetylcysteine] | significantly lesser | 7*10^3 CFU/ml | ~2.0*10^2 cfu/ml | lower bacteria concentration | remained stable
N[C@@H](CSN=O)C(=O)O [S-nitroso-cysteine, S-nitrosocysteine] | reacts rapidly with N-methylaniline to produce progressively increasing amounts of nitrosamine |  | ~2.0*10^2 cfu/ml | lower bacteria concentration | 
O=NO [sodium nitrite] |  | 8*10^3 CFU/ml | 5.8*10^3 cfu/ml | ~10^8 | decreased over time
